Earlier results, collected in patent publication US7498354B2, “Pyrrolo[2,3-D]imidazoles for the treatment of hyperproliferative disorders” (OSI Pharmaceuticals, Inc., priority 2006, dated 2009).
Where a name gives a salt, the structure may show the parent alone.

Legend:
[1] = tested on: MO7e human leukemia cells; conditions: Kit ligand stimulation
[2] = tested on: MO7e human leukemia cells; conditions: GM-CSF stimulation

Cc1ccc(NC(=O)c2ccc(CN3CCN(C)CC3)cc2)cc1Nc1nccc(-c2cccnc2)n1 [Gleevec, imatinib mesylate]
Kit ligand-stimulated growth of MO7e human leukemia cells [1]: inhibited | apoptosis in Kit ligand-stimulated MO7e cells [1]: induces apoptosis | GM-CSF stimulated growth of MO7e human leukemia cells [2]: not affected
